In EP0429987B1, “5,11-Dihydro-6H-dipyrido[3,2-b:2',3'-e] [1,4]diazepines and their use in the prevention or treatment of HIV infection” (priority 1989, dated 1991):

What was measured:
[1] = in vitro; details: human, h9 cells
Method: In order to roughly assess the cytotoxicity of the compounds provided by the invention, several such compounds were tested in the MTT Cellular Cytotoxicity Assay described below.
The MTT [3-(4,5-dimethylthiazol-2-yl)-2,5 diphenyl tetrazolium bromide) assay is based on cleavage of tetrazolium bromide by metabolically active cells, resulting in a highly quantitative blue color. This assay has been previously described (1) but has been optimized for the purposes of the testing reported herein.
The H9 cell line (2), an established human lymphoma suspension cell line grown in RPMI 1640 supplemented with 10% fetal bovine serum, is used as the target cell line in the assay. Cells (100 µl) are plated in microtest plate wells at a concentration of 10^5 cells per ml in the presence of varying concentrations of inhibitor. The cells are incubated at 37°C in a humidified CO2 incubator. Five days later, 20µl of MTT (5mg/ml in RPMI 1640, sonicated, 0.2 micron filtered, and stored at 4°C) is added to each well. After 4 hours additional incubation at 37°C, 60µl of Triton-X is added to each well and thoroughly mixed to aid the solubilization of the crystals. Absolute ethanol (5µl) is added to each well and the resulting mixture is incubated for 30 minutes at 60°C and immediately read on a plate reader (Dynatech) at a wavelength of 570nm.
Data from this assay are used to generate a nonlinear regression analysis which yields an EC50.

[2] = tested on: HTLV-IIIB strain of HIV-1; experiment: Human T-Cell Culture Assay: inhibition of syncytia formation in c8166 cells; format: cell-based; details: Human immunodeficiency virus 1, IIIB, 96 h, four days after virus challenge
Method: In order to confirm that compounds which are active in the RT Assay also have the ability to inhibit HIV replication in a living system, compounds according to the invention were also tested in the human T-Cell Culture Assay described below.
Assay Theory: Formation of syncytia is a feature of in vitro cultures of CD4+ T-cells infected with HIV-1. In this assay, T-cells are treated with a putative replication inhibiting compound and then infected with HIV-1. After incubation, the culture is checked for the formation of syncytia. The absence or reduction in the number of syncytia is used as a measure of the test compound's ability to inhibit HIV replication.
Assay Method: The target cells, designated c8166, are a sub-clone of human lymphoma cells of T-cell origin and are established at an initial density of 5x10^4 per 100 ul in RPMI 1640 (+ 10% fetal bovine serum) culture medium in 96 well flat bottom plates. A selected amount of test compound, dissolved in DMSO, is included. After 24 hours, 50-100 TCID50's (the dose that results in induced effect in 50% of test cultures) of the HTLV-IIIB strain of HIV-1 (2) are inoculated into each culture. Control cultures receive compound or virus only. Four days after virus challenge, cultures are visually examined for the frequency and distribution of virus-induced giant cell syncytia. The percent inhibition by the test compound is determined by comparison with control values. Confirmation of the presence or absence of virus replication is accomplished by harvesting the cell free culture fluids from all experimental groups to determine the presence or absence of infectious progeny through the induction of syncytia formation in secondary human T-cell cultures after 3 days.

[3] = target: T1, HIV-1 RT (Human immunodeficiency virus type 1 group M subtype B, UniProt P03367); experiment: Reverse Transcriptase (RT) Assay: inhibition of RNA-dependent DNA polymerase activity; format: biochemical; details: for inhibition at 10 µg/mL: read-out: RT Assay % inhibition @ 10 µg/ml; for inhibition at 1.25 µM: @ 1.25µM (footnote +)
T1 construct: Reverse transcriptase enzyme from the LAV strain of Human Immunodeficiency Virus (HIV-1) (1) was isolated; made in house; host or cells: E. coli JM109, clone pBRTprtl+ in vector pIBI21 (lac promoter, IPTG induction)
Source text: Utilizing the Reverse Transcriptase (RT) Assay described below, compounds can be tested for their ability to inhibit the RNA-dependent DNA polymerase activity of HIV-1 RT.
Among the enzymes for which Human Immunodeficiency Virus (HIV-1) encodes is a reverse transcriptase (1), so-named because it transcribes a DNA copy from an RNA template. This activity can be quantitatively measured in a cell-free enzyme assay, which has been previously described (2), and is based upon the observation that reverse transcriptase is able to use a synthetic template [poly r(C) primed with oligo d(G)] to transcribe a radio-labelled, acid-precipitable DNA strand utilizing ^3H-dGTP as a substrate.
Reverse transcriptase enzyme from the LAV strain of Human Immunodeficiency Virus (HIV-1) (1) was isolated from the bacterial strain JM109 (3) expressing the DNA clone pBRTprtl+ (2) which is under the control of the lac promotor in the expression vector pIBI21 (4). An overnight culture grown in 2XYT medium (37°C, 225 rpm) (5) supplemented with 100 µg/ml ampicillin for positive selection is inoculated at a 1:40 dilution into M9 medium supplemented with 10µg/ml thiamine, 0.5% casamino acids, and 50 µg/ml ampicillin (5). The culture is incubated (37°C, 225 rpm) until it reaches an OD540 of 0.3-0.4. At that time the repressor inhibitor IPTG (isopropyl β-D-thiogalactopyranoside) is added to 0.5mM, and the mixture is incubated for 2 additional hours. Bacteria are pelleted, resuspended in a 50mM Tris, 0.6mM EDTA, 0.375M NaCl buffer and digested by the addition of lysozyme (1mg/ml) for 30 minutes on ice. The cells are lysed by the addition of 0.2% NP-40 and brought to 1M NaCl.
After removal of the insoluble debris by centrifugation, the protein is precipitated by the addition of 3 volumes of saturated aqueous ammonium sulfate. The enzyme is pelleted, resuspended in RT buffer (50mM Tris pH 7.5, 1mM EDTA, 5mM DTT, 0.1% NP-40, 0.1M NaCl, and 50% glycerol), and stored at -70°C for further use.
The 2X concentrated stock reaction mixture is aliquoted and stored at -20°C. […] This enzyme assay has been adapted to a 96 well microtiter plate system, and has been previously described (6). Tris buffer (50 mM, pH 7.4), vehicle (solvent diluted to match the compound dilution), or compounds in vehicle are dispensed into 96-well microtiter plates (10µl/well; 3 wells/ compound). The HIV-1 RT enzyme is thawed, diluted in 50mM Tris pH 7.4 so that fifteen µl of diluted enzyme contain 0.001 Unit (one unit is that amount of enzyme to transform 1 micromole of substrate per minute at 25°C), and fifteen µl are dispensed per well. Twenty µl of 0.12-0.5M EDTA are added to the first three wells of the microtiter plate. EDTA chelates the Mg^++ present and prevents reverse transcription. This group serves as background polymerization which is subtracted from all other groups. Twenty-five µl of the 2X reaction mixture are added to all wells and the assay is allowed to incubate at room temperature for 60 minutes. The assay is terminated by precipitating the DNA in each well with 50µl of 10% trichloracetic acid (TCA) (10% w/v) in sodium pyrophosphate (1% w/v). The microtiter plate is incubated for 15 minutes at 4°C and the precipitate is fixed onto #30 glass fiber paper (Schleicher & Schuell) using a Skatron semi-automatic harvester. The filters are then washed with additional TCA (5%) containing sodium pyrophosphate (1%), rinsed with aqueous ethanol (70%), dried, and transferred to scintillation vials (6). Each vial receives 2 mls of scintillation cocktail and is counted in a Beckman beta counter.
The calculation for percent inhibition is as follows: %inhibition =(CPM Mean Test Value - CPM Mean Control Value X100)/(CPM Mean Control Value) [formula]

Row | SMILES | inhibition at 10 µg/mL [3] | inhibition at 1.25 µM [3] | CC50 at 120 h [1] | inhibition at 3 µg/mL [2] | RT Assay % inhibition @ 10 µg/ml ([3]; @ 10 µg/ml)
1 | Cc1ccnc2c1NC(=O)c1cccnc1N2C1CC1 [Example 3, 11-Cyclopropyl-5,11-dihydro-4-methyl-6H-dipyrido[3,2-b:2',3'-e][1,4]diazepin-6-one] |  |  | 250 µM | 100% | 100%
2 | CCN1c2ncccc2NC(=O)c2cccnc21 [Example 14] | 99% |  |  | 100% | 
3 | CCN1c2ncccc2C(=O)Nc2c(C)ccnc21 [Example 2, 5,11-Dihydro-11-ethyl-4-methyl-6H-dipyrido-[3,2-b:2',3'-e][1,4]diazepin-6-one] | 100% |  | 200 µM | 100% | 

Now from value to compound, other results behind:

Row | inhibition at 10 µg/mL [3] | inhibition at 1.25 µM [3] | SMILES | CC50 at 120 h [1] | inhibition at 3 µg/mL [2] | RT Assay % inhibition @ 10 µg/ml ([3]; @ 10 µg/ml)
4 |  | 96% | CCN1c2ncccc2C(=O)Nc2c(C)cc(OC)nc21 [Example 7, 5,11-Dihydro-11-ethyl-2-methoxy-4-methyl-6H-dipyrido[3,2-b:2',3'-e][1,4]diazepin-6-one] | 350 µM | 100% | 
5 | 100% |  | CN1C(=O)c2cccnc2N(C2CC2)c2ncccc21 [Example 47] |  | 100% | 
6 |  | 91% | CCN1c2ncccc2C(=O)N(C)c2ccc(N3CCCC3)nc21 [Example 6, 5,11-Dihydro-11-ethyl-5-methyl-2-(N-pyrrolidino)-6H-dipyrido[3,2-b:2',3'-e][1,4]diazepin-6-one] | 45 µM | 100% | 
